What is called IC50 is the concentration needed to halve the response being measured. A lower IC50 goes with greater potency in that assay.

Holding throughout (format): biochemical
One assay addresses T1, Btk (Homo sapiens, UniProt Q06187).
T1 construct: purified from insect cells as a full-length construct containing a N-terminal 6×-His tag; 6xHis (N); host or cells: insect cells (baculovirus Sf21 in Method B)
The experiment in a line: Btk in vitro inhibitory activity (one of Methods A, B, C). To be noted: determined in one of three in vitro assays (Examples 125-127). The protocol:
The Btk IC50s of compounds disclosed herein was determined in one of the three in vitro assays described in Examples 125-127.
(§1) Btk kinase activity was determined using a time-resolved fluorescence resonance energy transfer (TR-FRET) methodology. Measurements were performed in a reaction volume of 50 μL using 96-well assay plates. […] The reaction was quenched by the addition of 1.2 equivalents of EDTA (relative to divalent cation) in 25 μL of 1× Lance buffer (Perkin-Elmer). Streptavidin-APC (Perkin-Elmer) and Eu-labeled p-Tyr100 antibody (Perkin-Elmer) in 1× Lance buffer were added in a 25 μL volume to give final concentrations of 100 nM and 2.5 nM, respectively, and the mixture was allowed to incubate for one hour. The TR-FRET signal was measured on a multimode plate reader with an excitation wavelength (λEx) of 330 nm and detection wavelengths (λEm) of 615 and 665 nm. Activity was determined by the ratio of the fluorescence at 665 nm to that at 615 nm. For each compound, enzyme activity was measured at various concentrations of compound. Negative control reactions were performed in the absence of inhibitor in replicates of six, and two no-enzyme controls were used to determine baseline fluorescence levels Inhibition constants, Ki(app), were obtained using the program BatchKi (Kuzmic et al. (2000), Anal. Biochem. 286:45-50). IC50s were obtained according to the equation: IC50={Ki(app)/(1+[ATP]/Km^ATP)}+[E]total/2; For all kinases, [ATP]=Km^ATP, [Btk]total=0.5 nM and [Lck]total=6 nM.
Kinase activity is measured in vitro using electrophoretic mobility shift assay. The kinase reactions are assembled in a total volume of 25 μL in 384 well plates. […] The reaction is incubated for one hour and is quenched by the addition of 45 μL of termination buffer (100 mM HEPES, pH7.5, 0.01% Triton X-100, 30 mM EDTA). The terminated reactions are analyzed using 12 channel LabChip® 3000 microfluidic detection instrument (Caliper Life Sciences). The enzymatic phosphorylation of the peptide results in a change in net charge, enabling electrophoretic separation of product from substrate peptide. As substrate and product peptides are separated, two peaks of fluorescence are observed. Change in the relative fluorescence intensity of the substrate and product peaks is the parameter measured, reflecting enzyme activity. In the presence of an inhibitor, the ratio between product and substrate is altered: the signal of the product decreases, while the signal of the substrate increases.
Activity in each sample is determined as the product to sum ratio (PSR): P/(S+P), where P is the peak height of the product peptide and S is the peak height of the substrate peptide. For each compound, enzyme activity is measured at various concentrations (12 concentrations of compound spaced by 3× dilution intervals). Negative control samples (0%-inhibition in the absence of inhibitor) and positive control samples (100%-inhibition, in the presence of 20 mM EDTA) are assembled in replicates of four and are used to calculate %-inhibition values for each inhibitor at each concentration. Percent inhibition (Pinh) is determined using following equation: Pinh=(PSR0%−PSRinh)/(PSR0%−PSR100%)*100, where PSRinh is the product sum ratio in the presence of inhibitor, PSR0% is the average product sum ration in the absence of inhibitor and PSR100% is the average product sum ratio in 100%-inhibition control samples;
The IC50 values of inhibitors are determined by 4 parameter sigmoidal dose-response model fitting of the inhibition curves (Pinh versus inhibitor concentration) using XLfit 4 software.
Human Btk kinase (Genbank accession # NP_000052) was purified from insect cells as a full-length construct containing a N-terminal 6×-His tag. Btk kinase activity was determined using a radiometric filter binding assay. Measurements are performed in a low reaction volume 384-well assay plates. […]

A further assay addresses EGFR (Homo sapiens, UniProt P00533). The experiment in a line: EGFR kinase inhibition.
The target of the next assay is Lck (Homo sapiens, UniProt P06239). The experiment in a line: Lck kinase inhibition. How it is done:
as §1

A further assay deals with C-src (Homo sapiens, UniProt P12931). The experiment in a line: C-src kinase inhibition. The protocol: as §1
C-src, sequence (P12931 whole entry): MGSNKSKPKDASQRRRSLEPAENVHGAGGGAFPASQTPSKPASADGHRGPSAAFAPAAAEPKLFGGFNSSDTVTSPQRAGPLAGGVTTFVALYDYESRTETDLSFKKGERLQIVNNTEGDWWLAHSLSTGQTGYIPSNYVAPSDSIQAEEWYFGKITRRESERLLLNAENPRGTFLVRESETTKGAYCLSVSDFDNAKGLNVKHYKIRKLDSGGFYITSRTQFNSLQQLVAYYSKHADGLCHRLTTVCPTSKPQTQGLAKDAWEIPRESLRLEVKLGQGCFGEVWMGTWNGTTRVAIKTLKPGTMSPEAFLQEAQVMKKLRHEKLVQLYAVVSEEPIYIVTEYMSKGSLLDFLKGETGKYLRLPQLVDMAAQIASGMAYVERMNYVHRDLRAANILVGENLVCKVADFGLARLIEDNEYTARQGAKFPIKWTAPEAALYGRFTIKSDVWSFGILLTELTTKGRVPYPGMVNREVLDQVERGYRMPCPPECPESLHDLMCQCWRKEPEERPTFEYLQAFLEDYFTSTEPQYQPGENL
The target of a further assay is Lyn (Homo sapiens, UniProt P07948). Put plainly: Lyn kinase inhibition.
Lyn, sequence (P07948 whole entry): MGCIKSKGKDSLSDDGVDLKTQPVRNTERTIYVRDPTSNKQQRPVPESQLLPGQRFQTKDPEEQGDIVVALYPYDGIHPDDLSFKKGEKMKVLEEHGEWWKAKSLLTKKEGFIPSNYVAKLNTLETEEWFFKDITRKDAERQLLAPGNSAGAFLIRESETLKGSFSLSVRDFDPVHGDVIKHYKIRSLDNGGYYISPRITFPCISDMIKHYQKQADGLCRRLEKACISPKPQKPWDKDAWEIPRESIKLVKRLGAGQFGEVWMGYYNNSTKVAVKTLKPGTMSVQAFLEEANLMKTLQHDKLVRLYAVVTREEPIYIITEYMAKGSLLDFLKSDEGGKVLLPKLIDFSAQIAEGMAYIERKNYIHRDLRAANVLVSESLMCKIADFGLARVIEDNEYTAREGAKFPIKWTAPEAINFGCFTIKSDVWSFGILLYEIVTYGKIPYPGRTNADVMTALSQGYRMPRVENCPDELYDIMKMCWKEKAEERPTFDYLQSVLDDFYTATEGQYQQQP
A further assay addresses T2, Tec (Homo sapiens, UniProt P42680).
T2 sequence (P42680 1-631): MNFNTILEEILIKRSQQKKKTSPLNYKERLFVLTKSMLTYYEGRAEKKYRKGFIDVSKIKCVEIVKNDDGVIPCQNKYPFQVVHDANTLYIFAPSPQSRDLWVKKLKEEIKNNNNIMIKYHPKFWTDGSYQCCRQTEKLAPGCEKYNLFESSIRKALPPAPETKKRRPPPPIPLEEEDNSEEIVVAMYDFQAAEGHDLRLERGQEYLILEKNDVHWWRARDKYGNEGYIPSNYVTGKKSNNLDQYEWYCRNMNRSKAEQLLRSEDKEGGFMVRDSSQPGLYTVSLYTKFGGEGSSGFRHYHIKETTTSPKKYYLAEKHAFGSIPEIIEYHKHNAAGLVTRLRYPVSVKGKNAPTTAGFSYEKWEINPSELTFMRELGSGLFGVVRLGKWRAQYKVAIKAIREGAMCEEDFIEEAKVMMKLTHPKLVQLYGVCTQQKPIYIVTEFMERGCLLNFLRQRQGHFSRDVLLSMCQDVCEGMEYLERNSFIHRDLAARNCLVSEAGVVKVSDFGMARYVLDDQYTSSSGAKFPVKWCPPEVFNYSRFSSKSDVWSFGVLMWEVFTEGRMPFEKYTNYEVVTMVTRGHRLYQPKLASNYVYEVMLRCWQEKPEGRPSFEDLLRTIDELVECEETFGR
The experiment in a line: Tec kinase inhibition. How it is done:
as §1

Another assay concerns the target BLK (Homo sapiens, UniProt P51451). Put plainly: BLK kinase inhibition. The protocol: as §1
In the next assay the target is T3, BMX (Homo sapiens, UniProt P51813).
T3 sequence (P51813 1-675): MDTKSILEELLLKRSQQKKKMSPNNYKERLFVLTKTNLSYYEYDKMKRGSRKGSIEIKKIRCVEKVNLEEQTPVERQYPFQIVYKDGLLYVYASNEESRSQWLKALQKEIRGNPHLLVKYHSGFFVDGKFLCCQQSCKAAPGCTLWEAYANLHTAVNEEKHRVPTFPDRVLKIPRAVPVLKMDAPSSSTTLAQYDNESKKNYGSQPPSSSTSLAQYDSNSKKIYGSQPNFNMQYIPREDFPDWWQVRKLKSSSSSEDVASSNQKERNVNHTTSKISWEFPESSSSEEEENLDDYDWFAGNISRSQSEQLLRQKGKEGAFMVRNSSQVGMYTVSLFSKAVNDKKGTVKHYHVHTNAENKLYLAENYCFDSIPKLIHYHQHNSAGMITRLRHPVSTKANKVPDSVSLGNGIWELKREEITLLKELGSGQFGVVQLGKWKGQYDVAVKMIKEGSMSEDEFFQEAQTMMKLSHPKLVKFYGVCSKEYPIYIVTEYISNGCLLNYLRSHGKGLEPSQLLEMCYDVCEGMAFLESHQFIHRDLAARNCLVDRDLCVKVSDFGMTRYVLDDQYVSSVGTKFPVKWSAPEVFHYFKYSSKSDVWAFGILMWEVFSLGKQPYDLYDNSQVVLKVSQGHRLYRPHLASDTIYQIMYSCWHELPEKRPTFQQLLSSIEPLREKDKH
The experiment in a line: BMX kinase inhibition.

For a further assay, the target named is CSK (Homo sapiens, UniProt P41240). Put plainly: CSK kinase inhibition.
CSK, sequence (P41240 whole entry): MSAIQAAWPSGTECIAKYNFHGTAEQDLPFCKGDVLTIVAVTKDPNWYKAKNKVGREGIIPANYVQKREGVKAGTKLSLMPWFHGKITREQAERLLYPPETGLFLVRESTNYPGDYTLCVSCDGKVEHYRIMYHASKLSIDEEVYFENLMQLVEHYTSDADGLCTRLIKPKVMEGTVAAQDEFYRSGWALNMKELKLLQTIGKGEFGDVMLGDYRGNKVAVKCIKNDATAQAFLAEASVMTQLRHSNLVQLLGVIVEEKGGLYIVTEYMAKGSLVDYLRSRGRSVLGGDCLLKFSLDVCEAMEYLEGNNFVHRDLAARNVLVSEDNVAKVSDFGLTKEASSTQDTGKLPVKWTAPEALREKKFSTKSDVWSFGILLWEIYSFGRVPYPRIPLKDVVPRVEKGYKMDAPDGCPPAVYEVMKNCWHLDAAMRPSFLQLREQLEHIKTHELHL

Lck, sequence (P06239 whole entry): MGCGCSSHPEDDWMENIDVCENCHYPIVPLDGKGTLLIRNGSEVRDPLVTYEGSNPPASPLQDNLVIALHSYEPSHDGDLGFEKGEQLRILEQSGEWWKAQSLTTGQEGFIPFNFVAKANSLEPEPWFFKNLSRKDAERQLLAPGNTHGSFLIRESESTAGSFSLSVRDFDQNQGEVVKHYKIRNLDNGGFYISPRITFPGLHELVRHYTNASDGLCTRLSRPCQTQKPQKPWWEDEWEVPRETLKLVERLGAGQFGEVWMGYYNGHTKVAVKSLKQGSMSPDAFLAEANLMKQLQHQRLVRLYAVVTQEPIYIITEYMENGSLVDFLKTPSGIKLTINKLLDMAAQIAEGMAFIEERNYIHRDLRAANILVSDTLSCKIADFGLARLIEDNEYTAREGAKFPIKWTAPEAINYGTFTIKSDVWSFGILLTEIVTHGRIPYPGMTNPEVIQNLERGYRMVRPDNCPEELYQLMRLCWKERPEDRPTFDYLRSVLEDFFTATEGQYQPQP
T1 sequence (Q06187 whole entry): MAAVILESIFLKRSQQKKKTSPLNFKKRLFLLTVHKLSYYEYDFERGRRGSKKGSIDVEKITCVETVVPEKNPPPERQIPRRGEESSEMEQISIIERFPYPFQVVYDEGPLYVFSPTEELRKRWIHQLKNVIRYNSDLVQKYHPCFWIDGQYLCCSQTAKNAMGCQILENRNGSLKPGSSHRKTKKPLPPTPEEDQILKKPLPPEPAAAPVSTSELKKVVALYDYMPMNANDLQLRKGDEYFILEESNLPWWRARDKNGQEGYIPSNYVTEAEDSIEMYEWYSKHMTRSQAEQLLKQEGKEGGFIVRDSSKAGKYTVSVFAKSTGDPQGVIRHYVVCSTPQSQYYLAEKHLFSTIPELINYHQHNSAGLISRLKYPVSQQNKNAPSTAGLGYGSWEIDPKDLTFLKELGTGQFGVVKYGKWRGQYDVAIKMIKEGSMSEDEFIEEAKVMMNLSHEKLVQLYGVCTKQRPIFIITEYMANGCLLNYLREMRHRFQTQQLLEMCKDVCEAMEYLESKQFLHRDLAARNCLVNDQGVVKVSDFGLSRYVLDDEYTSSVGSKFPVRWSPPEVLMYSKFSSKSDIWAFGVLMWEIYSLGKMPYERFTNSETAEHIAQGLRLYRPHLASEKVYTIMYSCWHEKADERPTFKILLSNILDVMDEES
EGFR, sequence (P00533 25-1210): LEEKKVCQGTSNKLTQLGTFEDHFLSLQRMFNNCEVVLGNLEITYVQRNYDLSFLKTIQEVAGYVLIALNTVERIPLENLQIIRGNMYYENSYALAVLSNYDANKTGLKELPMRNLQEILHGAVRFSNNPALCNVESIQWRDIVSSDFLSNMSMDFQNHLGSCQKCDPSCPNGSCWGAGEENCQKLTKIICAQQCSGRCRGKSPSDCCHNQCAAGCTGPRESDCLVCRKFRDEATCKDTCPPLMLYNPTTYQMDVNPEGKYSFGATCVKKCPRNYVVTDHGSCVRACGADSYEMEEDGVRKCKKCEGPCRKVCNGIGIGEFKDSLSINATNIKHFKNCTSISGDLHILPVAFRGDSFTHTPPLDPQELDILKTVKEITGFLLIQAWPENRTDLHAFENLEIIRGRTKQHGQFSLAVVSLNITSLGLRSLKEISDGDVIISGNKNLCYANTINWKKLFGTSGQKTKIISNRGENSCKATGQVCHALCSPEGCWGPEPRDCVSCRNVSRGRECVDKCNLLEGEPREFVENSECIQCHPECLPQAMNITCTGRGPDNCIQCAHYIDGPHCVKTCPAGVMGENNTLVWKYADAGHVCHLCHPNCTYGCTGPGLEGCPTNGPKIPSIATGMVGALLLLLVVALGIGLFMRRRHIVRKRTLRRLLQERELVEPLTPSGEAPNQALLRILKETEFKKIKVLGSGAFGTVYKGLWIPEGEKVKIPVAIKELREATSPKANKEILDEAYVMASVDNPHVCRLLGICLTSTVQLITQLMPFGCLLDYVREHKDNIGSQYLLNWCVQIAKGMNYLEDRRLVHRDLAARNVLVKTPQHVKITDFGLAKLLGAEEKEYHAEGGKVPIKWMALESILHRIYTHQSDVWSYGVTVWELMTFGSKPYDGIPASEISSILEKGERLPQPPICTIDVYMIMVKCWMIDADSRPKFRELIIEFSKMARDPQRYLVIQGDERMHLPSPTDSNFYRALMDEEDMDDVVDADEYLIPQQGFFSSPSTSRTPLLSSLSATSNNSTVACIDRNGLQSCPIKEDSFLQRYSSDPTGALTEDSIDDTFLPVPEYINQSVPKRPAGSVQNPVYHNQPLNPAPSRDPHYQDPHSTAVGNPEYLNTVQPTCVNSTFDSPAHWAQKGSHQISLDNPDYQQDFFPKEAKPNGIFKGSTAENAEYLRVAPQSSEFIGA
BLK, sequence (P51451 whole entry): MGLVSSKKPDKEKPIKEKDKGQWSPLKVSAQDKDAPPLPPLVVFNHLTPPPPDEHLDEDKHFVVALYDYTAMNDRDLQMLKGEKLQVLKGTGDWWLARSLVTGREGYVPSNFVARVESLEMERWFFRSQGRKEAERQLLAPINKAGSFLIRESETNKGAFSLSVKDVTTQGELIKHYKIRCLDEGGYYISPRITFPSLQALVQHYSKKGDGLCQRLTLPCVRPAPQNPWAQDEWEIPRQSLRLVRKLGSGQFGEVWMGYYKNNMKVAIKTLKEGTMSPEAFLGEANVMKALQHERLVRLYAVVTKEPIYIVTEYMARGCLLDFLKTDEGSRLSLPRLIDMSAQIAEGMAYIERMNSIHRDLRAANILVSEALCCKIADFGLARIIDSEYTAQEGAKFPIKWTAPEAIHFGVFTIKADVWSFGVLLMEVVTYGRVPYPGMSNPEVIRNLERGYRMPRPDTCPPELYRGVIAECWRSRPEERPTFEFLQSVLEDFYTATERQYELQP

Turning to `COc1cc(-c2nn(-c3ccc(N(C)C(=O)/C=C/CN(C)C)cc3)c3ncnc(N)c23)ccc1C` [Example 15, (E)-N-(4-(4-amino-3-(3-methoxy-4-methylphenyl)-1H-pyrazolo[3,4-d]pyrimidin-1-yl)phenyl)-4-(dimethylamino)-N-methylbut-2-enamide], the concentration for half-maximal inhibition (IC50) against Btk was less than 100 nM; at EGFR, 100 to 1000 nM; at Lck, less than 100 nM; against C-src, less than 100 nM; at Lyn it was less than 100 nM.
`COc1cc(-c2nn(-c3ccc(NC(=O)/C=C/CN(C)C)cc3)c3ncnc(N)c23)ccc1C` [Example 16, (E)-N-(4-(4-amino-3-(3-methoxy-4-methylphenyl)-1H-pyrazolo[3,4-d]pyrimidin-1-yl)phenyl)-4-(dimethylamino)but-2-enamide]: the IC50 on Btk, on Tec, against EGFR, against Lck, against C-src and against Lyn was less than 100 nM throughout. Also, the IC50 against BLK, against BMX and on CSK was less than 100 nM throughout.
As to `C=CC(=O)N(C)c1ccc(-n2nc(-c3ccc(C)c(OC)c3)c3c(N)ncnc32)cc1` [Example 18, N-(4-(4-amino-3-(3-methoxy-4-methylphenyl)-1H-pyrazolo[3,4-d]pyrimidin-1-yl)phenyl)-N-methylacrylamide], the IC50 on Btk was less than 100 nM; against EGFR, less than 100 nM; against Lck it was less than 100 nM; at C-src, less than 100 nM; against Lyn, 100 to 1000 nM.
In the case of `C=CC(=O)Nc1ccc(-n2nc(-c3ccc(Cl)cc3)c3c(N)ncnc32)cc1` [Example 19, N-(4-(4-amino-3-(4-chlorophenyl)-1H-pyrazolo[3,4-d]pyrimidin-1-yl)phenyl)acrylamide], the IC50 against Btk, on EGFR, against Lck, on C-src and against Lyn was less than 100 nM in each case.
Regarding `C=CC(=O)Nc1ccc(-n2nc(-c3ccc(Cl)c(Cl)c3)c3c(N)ncnc32)cc1` [Example 20, N-(4-(4-amino-3-(3,4-dichlorophenyl)-1H-pyrazolo[3,4-d]pyrimidin-1-yl)phenyl)acrylamide], the IC50 against Btk was less than 100 nM; against Lck, 100 to 1000 nM; against C-src, less than 100 nM; against Lyn, 100 to 1000 nM.
Turning to `C=CC(=O)N(C)c1cccc(-n2nc(-c3ccc(Cl)cc3)c3c(N)ncnc32)c1` [Example 22, N-(3-(4-amino-3-(4-chlorophenyl)-1H-pyrazolo[3,4-d]pyrimidin-1-yl)phenyl)-N-methylacrylamide], the IC50 is less than 100 nM on Btk; less than 100 nM against EGFR; greater than 1000 nM at Lck; 100 to 1000 nM on C-src; greater than 1000 nM on Lyn.
With `CN(C/C=C/C(=O)Nc1cccc(-n2nc(-c3ccc(Cl)cc3)c3c(N)ncnc32)c1)C1CC1` [Example 26, (E)-N-(3-(4-amino-3-(4-chlorophenyl)-1H-pyrazolo[3,4-d]pyrimidin-1-yl)phenyl)-4-(cyclopropyl(methyl)amino)but-2-enamide], the IC50 on Btk is less than 100 nM; against Lck it was 100 to 1000 nM; on C-src, 100 to 1000 nM; against Lyn it was 100 to 1000 nM.
Consider `CN(C)C/C=C/C(=O)N(C)c1ccc(-n2nc(-c3ccc(Cl)cc3)c3c(N)ncnc32)nc1` [Example 28, (E)-N-(6-(4-amino-3-(4-chlorophenyl)-1H-pyrazolo[3,4-d]pyrimidin-1-yl)pyridin-3-yl)-4-(dimethylamino)-N-methylbut-2-enamide], for which the IC50 at Btk is less than 100 nM; against EGFR it was greater than 1000 nM; on Lck it was 100 to 1000 nM; against C-src, 100 to 1000 nM; on Lyn, greater than 1000 nM.
For the compound `COc1cc(-c2nn(-c3ccc(N(C)C(=O)/C=C/CN(C)C)cn3)c3ncnc(N)c23)ccc1C` [Example 29, (E)-N-(6-(4-amino-3-(3-methoxy-4-methylphenyl)-1H-pyrazolo[3,4-d]pyrimidin-1-yl)pyridin-3-yl)-4-(dimethylamino)-N-methylbut-2-enamide], the IC50 against Btk was less than 100 nM; against EGFR it was greater than 1000 nM; at Lck, 100 to 1000 nM; against C-src, less than 100 nM; on Lyn, 100 to 1000 nM.
At Btk, `C=CC(=O)N1CC[C@@H](n2nc(-c3ccc(F)cc3)c3c(N)ncnc32)C1` [Example 85c] gave an IC50 of less than 100 nM.
For `C=CC(=O)N1CC[C@@H](n2nc(-c3ccc(C)cc3)c3c(N)ncnc32)C1` [Example 85d], the IC50 against Btk was less than 100 nM.
